Data reported in patent US20060018872A1, “Poly(lactic acid) copolymer hydrogels and related methods of drug delivery” (priority 2004, published 2006).
Values after ≈ are worked out from the molar mass of the structure shown. Structures can show the parent of a compound that is named as a salt.

Experiments:
[1] = physchem
Text: The use of thermo-reversible triblock gels (Pluronics) as delivery agents for anti-inflammatories (naproxen and indomethacin), local anesthetics, and anti-cancer agents has been studied (Sharma, P. K. and Bhatia, S. R. Effect of Anti-Inflammatories on Pluronic® F127: Micellar Assembly, Gelation and Partitioning. Int J Pharmaceutics, in press, 2004). An ultraviolet spectroscopy technique has been developed to measure rapidly the solubility and micelle-water partition coefficients of hydrophobic pharmaceuticals in micellar gels and has been applied to PLA-PEO-PLA hydrogels. In addition to evaluating partitioning, release kinetics in PLA-PEO-PLA systems have also been studied.

[2] = cited from earlier work
[3] = Release kinetics of pharmaceuticals from PLA-PEO-PLA gels at 25° C.; assay type: physicochemical; conditions: both polymers (1L and 2D/L), FIG. 7A

COc1ccc2c(c1)c(CC(=O)O)c(C)n2C(=O)c1ccc(Cl)cc1 [Indomethacin, indomethacin]
micelle-water partition coefficient [1]: 108±8 | solubility ([1]; water): 25 µg/mL (≈ 69.9 µM)

CC1=C(CC(=O)O)c2cc(F)ccc2/C1=C\c1ccc([S+](C)[O-])cc1 (centres unmarked) [sulindac]
time of complete release ([2]; from poly(styrene-divinylbenzene) microspheres): 24 h

CCCCNc1ccc(C(=O)OCCN(C)C)cc1 [tetracaine hydrochloride]
release behavior ([2]; from poly(DL-lactic-co-glycolic acid)): burst release

COC(=O)c1ccc(O)cc1 [methyl paraben]
release of methyl paraben from PLA-PEO-PLA gels [3]: majority of the methyl paraben being quickly released within the first five hours
